Laboratory results from patent US20190382827A1, “USE OF MICROBIAL METABOLITES FOR TREATING DISEASES” (Yeda Research and Development Co. Ltd., priority 2015, published 2019).

Key:
NLRP6 inflammasome = assay: Colon explants cultured with metabolites (IL-18 ELISA, caspase-1 immunoblot, gene expression); type: cell-based, mouse; conditions: colon explants incubated for 24 hrs, compared with spermine
Protocol: Colons were excised and washed thoroughly with PBS, homogenized in RIPA buffer containing protease inhibitors, incubated for 20 min in 4° C. and centrifuged for 20 min, 14,000 rpm at 4° C. Samples were separated on 15% acrylamide gels and transferred onto nitrocellulose membranes. Western blot analysis was performed using anti-caspase 1 p20 polyclonal antibody (Adipogen, AG-20B-0042B-C100) and Goat anti mouse antibody (Jackson ImmunoResearch, 115-035-003). Band density was calculated using ImageJ software. Colon pieces, 0.5 cm long, from the proximal colon were removed, rinsed with PBS, and weighed. The tissue explants were cultured for 24 hrs in DMEM medium containing 10% FBS, L-glutamine, penicillin, and streptomycin at 37° C. Culture medium was collected, centrifuged and the resulting supernatant stored in aliquots at -20° C. Concentrations of IL-18 in the serum or culture supernatants were measured using ELISA. […] Samples were then washed and plates were incubated with anti-mouse IL-18-biotin antibody ([…]-6 MBL) for 1 hour and HRP-Avidin (BioLegend) for 1 hour before quantification. […] For AMP induction in-vitro, 3 μg IL-18 were added to colon explants for 7 hours, then the explants were maintained in RNAlater and RNA was extracted. Tissues were preserved in RNAlater solution (Ambion) and subsequently homogenized in Tri Reagent (Fox et al.). RNA was purified according to the manufacturer's instructions. Two microgram of total RNA was used to generate cDNA (HighCapacity cDNA Reverse Transcription kit; Applied Biosystems). RealTime-PCR was performed using gene-specific primer/probe sets (Applied Biosystems) and Kapa Probe Fast qPCR kit (Kapa Biosystems) on a Viia7 instrument (Applied Biosystems). PCR conditions were 95° C. for 20 s, followed by 40 cycles of 95° C. for 3 s and 60° C. for 30 s. Data were analyzed using the deltaCt method with hprt serving as the reference housekeeping gene.

DSS colitis = assay: DSS colitis; type: in vivo, mouse; conditions: Asc-/- mice, IL-18 i.p. prior to induction of DSS colitis
Protocol: (§1) For IL-18 rescue experiments, recombinant IL-18 (MBL, Cat#B004-2) was injected intraperitoneally at a concentration of 1 μg per mouse for 5 days, and not injected for 2 days prior to DSS treatment. IL-18 injection to Swiss Webster germ-free mice and Nlrp6^−/− mice was performed twice a day for 3 days, while the mice were kept sterile using a cage-autonomous system (Hecht et al., 2014).
Mice were treated with 1.5% (w/v) DSS (M.W.=36,000-50,000 Da; MP Biomedicals) in their drinking water for 7 days followed by regular access to water. The animals were weighed daily and monitored for signs of distress as well as rectal bleeding.
For DSS rescue experiments, mice were receiving taurine in the drinking water prior to DSS treatment in a concentration of 100 mg/ml for 14 days.
Colonoscopy was performed using a high-resolution mouse video endoscopic system (Carl Storz, Tuttlingen, Germany). The severity of colitis was blindly scored using MEICS (Murine Endoscopic Index of Colitis Severity), which is based on five parameters: granularity of mucosal surface; vascular pattern; translucency of the colon mucosa; visible fibrin; and stool consistency (Becker et al., 2006).
On the day of the assay, 4 kDa fluorescein isothiocyanate (FITC)-dextran was dissolved in phosphate buffered saline (PBS) to a concentration of 80 mg ml^−1. Mice were fasted for 4 hours prior to gavage with 150 μl dextran. Mice were anesthetized 3 hours following gavage and blood was collected, centrifuged at 1,000×g for 12 min at 4° C. Serum was collected and fluorescence was quantified at an excitation wavelength of 485 nm and 535 nm emission wavelength.
DNA was extracted from liver samples (using MoBio PowerSoil kit). DNA concentration was calculated using a standard curve of known DNA concentrations from E. coli K12. 16S qPCR using primers identifying different regions of the V6 16S gene was performed using Kappa SYBR fast mix.
Absolute number of bacteria in the samples was then approximated as DNA amount in a sample/DNA molecule mass of bacteria.

colonic AMPs [1] = assay: IL-18 added to germ-free colon explants, AMP induction in-vitro; type: cell-based, mouse; conditions: GF colon explants, sterile conditions
Protocol: Colon explants were incubated with 70 mM of taurine (Sigma Aldrich, T0625), histamine (Sigma Aldrich, H7125) or spermine (Sigma Aldrich, S3256) for 24 hours. For AMP induction in-vitro, 3 μg IL-18 were added to colon explants for 7 hours, then the explants were maintained in RNAlater and RNA was extracted.
(§2) Tissues were preserved in RNAlater solution (Ambion) and subsequently homogenized in Tri Reagent (Fox et al.). RNA was purified according to the manufacturer's instructions. Two microgram of total RNA was used to generate cDNA (HighCapacity cDNA Reverse Transcription kit; Applied Biosystems). RealTime-PCR was performed using gene-specific primer/probe sets (Applied Biosystems) and Kapa Probe Fast qPCR kit (Kapa Biosystems) on a Viia7 instrument (Applied Biosystems). PCR conditions were 95° C. for 20 s, followed by 40 cycles of 95° C. for 3 s and 60° C. for 30 s. Data were analyzed using the deltaCt method with hprt serving as the reference housekeeping gene.

colonic AMPs [2] = assay: In-vivo injection of recombinant IL-18, colonic IL-18 and AMP levels; design: species or system mouse
Protocol: as §1
Concentrations of IL-18 in the serum or culture supernatants were measured using ELISA. Plates were coated over night with IL-18 (MBL, B004-2), incubated for 4 hours with supernatant or serum. Samples were then washed and plates were incubated with anti-mouse IL-18-biotin antibody (D048-6 MBL) for 1 hour and HRP-Avidin (BioLegend) for 1 hour before quantification.
as §2

intestinal microbiota = assay: In-vivo injection of recombinant IL-18, 16S microbiota analysis; design: species or system mouse
Protocol: as §1
Frozen fecal samples were processed for DNA isolation using the MoBio PowerSoil kit according to the manufacturer's instructions. For the 16S rRNA gene PCR amplification, ing of the purified fecal DNA was used for PCR amplification. Amplicons spanning the variable region 1/2 (V1/2) of the 16S rRNA gene were generated by using the following barcoded primers: Fwd 5′-XXXXXXXXAGAGTTTGATCCTGGCTCAG-3′ (SEQ ID NO: 1), Rev 5′-TGCTGCCTCCCGTAGGAGT-3′ (SEQ ID NO: 2), where X represents a barcode base. The reactions were subsequently pooled and cleaned (PCR clean kit, Promega), and the PCR products were then sequenced on an Illumina MiSeq in 500 bp paired-end method. The reads were then processed using the QIIME (Quantitative Insights Into Microbial Ecology, www(dot)qiime(dot)org) analysis pipeline as described (Caporaso et al., 2010; Elinav et al., 2011). In brief, fasta quality files and a mapping file indicating the barcode sequence corresponding to each sample were used as inputs, reads were split by samples according to the barcode, taxonomical classification was performed using the RDP-classifier, and an OTU table was created. Closed-reference OTU mapping was employed using the Greengenes database. Rarefaction was used to exclude samples with insufficient count of reads per sample. Sequences sharing 97% nucleotide sequence identity in the V2 region were binned into operational taxonomic units (97% ID OTUs). For beta-diversity, weighted unifrac measurements were plotted according to the two principal coordinates based on 1,000 reads per sample. The OTU tables used for our analyses are made accessible online.

microbiota = assay: Ang4 in-vitro culture of stool microbiota under anaerobic conditions; design: species or system mouse
Protocol: Murine Ang4 was expressed in E. coli and purified as previously described (Holloway et al, 2001). Stool pellets were collected and cultured in anaerobic conditions for 8 hours with rAng4, centrifuged and further analyzed using 16S rRNA sequencing.
Frozen fecal samples were processed for DNA isolation using the MoBio PowerSoil kit according to the manufacturer's instructions. For the 16S rRNA gene PCR amplification, ing of the purified fecal DNA was used for PCR amplification. […] The reads were then processed using the QIIME (Quantitative Insights Into Microbial Ecology, www(dot)qiime(dot)org) analysis pipeline as described (Caporaso et al., 2010; Elinav et al., 2011). In brief, fasta quality files and a mapping file indicating the barcode sequence corresponding to each sample were used as inputs, reads were split by samples according to the barcode, taxonomical classification was performed using the RDP-classifier, and an OTU table was created. […] Rarefaction was used to exclude samples with insufficient count of reads per sample. […] For beta-diversity, weighted unifrac measurements were plotted according to the two principal coordinates based on 1,000 reads per sample. […]

[3] = GF Nlrp6-/- mice, sterile administration
[4] = mice lacking NLRP6, ASC, or caspase-1/11

For `NCCCCN` [putrescine], the “IL-18 in colon explants” value (NLRP6 inflammasome) was “equally suppressed”.

With “IL-18: recombinant IL-18 (MBL, Cat#B004-2)” the colitis severity (DSS colitis) was “diminished”, the colonoscopy score (DSS colitis) was “improved” and the weight loss (DSS colitis) was “reduced”. For the same molecule, the “levels of colonic AMPs” value (colonic AMPs [1]) was “restored normal levels”, the Ang4 (colonic AMPs [2]; [3]) was “induced” and the “defect in secretion of mature IL-18 protein” value (colonic AMPs [2]; [3]) was “rescued this defect”. The “levels of colonic AMPs” value (colonic AMPs [2]; WT GF mice, in-vivo administration) was “restored normal levels”, the AMP levels (colonic AMPs [2]; [4]) was “restored” and the IL-18 levels (colonic AMPs [2]; [4]) was “restored”. The microbiota configuration (intestinal microbiota; Asc- and Caspase-1/11-deficient mice) was “significant configuration changes”, the “aberrant microbiota composition, beta- and alpha-diversity” value (intestinal microbiota; Caspase-1/11-/- mice) was “corrected” and the “abundance of multiple commensal bacteria” value (intestinal microbiota; Caspase-1/11-/- mice, relative to WT levels) was “restored”. The microbial community composition (intestinal microbiota; Nlrp6-/- mice) was “marked compositional changes”, the microbiota composition (intestinal microbiota; WT mice) was “not affected” and the “dominant transmission of the dysbiotic microbiota configuration” value (intestinal microbiota; WT recipients cohoused with inflammasome-deficient mice) was “prevented”. The “UniFrac distance to cohousing partners” value (intestinal microbiota; grWT(Asc-/-) mice injected with IL-18) was “increased”.

B1: Ang4: Murine Ang4 expressed in E. coli and purified; antimicrobial peptide (protein, UniProt Q3TMQ6 25-144, looked up)
Angiogenin-4: QNERYEKFLRQHYDAKPNGRDDRYCESMMKERKLTSPCKDVNTFIHGTKKNIRAICGKKGSPYGENFRISNSPFQITTCTHSGASPRPPCGYRAFKDFRYIVIACEDGWPVHFDESFISP
B1 was tested, and the beta- and alpha-diversity (microbiota; anaerobic in-vitro microbiome cultures of Asc-/- mice) was “partially restored” and the “impact on overall community composition” value (microbiota; microbiota from Asc-/- mice compared with WT mice) was “greater”.
